Columns and labels:
Test in all cases: Test D controlled growth environment herbicide test, pre- and postemergence
Format in all cases: in vivo
[1] = tested on: chamomile (scentless chamomile, Matricaria inodora)
Outline: (§1)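 Rating is visual, 0–100 scale (100 = complete control), made against untreated plants 14–21 d after treatment in controlled growth conditions. Postemergence sprays went onto 1- to 4-leaf plants in peat medium; preemergence sprays onto silt loam after sowing; formulation included a surfactant.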

[2] = tested on: canarygrass (Phalaris minor)
Outline: as §1

[3] = tested on: chickweed (common chickweed, Stellaria media)
Outline: as §1

[4] = tested on: speedwell (bird's-eye speedwell, Veronica persica)
Outline: as §1

[5] = tested on: oilseed rape (Brassica napus)
Outline: as §1

[6] = tested on: bromegrass, downy (downy bromegrass, Bromus tectorum); conditions: for Bromegrass, Downy plant response rating / Plant response rating (scale of 0 to 100), Bromegrass, Downy: 31 g ai/ha
Outline: as §1

[7] = tested on: buckwheat, wild (wild buckwheat, Polygonum convolvulus); conditions: for Buckwheat, Wild plant response rating / Plant response rating (scale of 0 to 100), Buckwheat, Wild: 31 g ai/ha
Outline: as §1

[8] = tested on: barley, winter (winter barley, Hordeum vulgare)
Outline: as §1

[9] = tested on: lambsquarters (Chenopodium album)
Outline: as §1

[10] = tested on: field poppy (Papaver rhoeas)
Outline: as §1

[11] = tested on: galium (catchweed bedstraw, Galium aparine)
Outline: as §1

[12] = tested on: blackgrass (Alopecurus myosuroides)
Outline: as §1

[13] = tested on: ryegrass, Italian (Italian ryegrass, Lolium multiflorum)
Outline: as §1

[14] = Postemergence, 31 g ai/ha, scale 0 to 100 (0 no effect, 100 complete control)
[15] = Postemergence, 125 g ai/ha, visual rating on scale 0 (no effect) to 100 (complete control), 14 to 21 d
[16] = Postemergence, 250 g ai/ha, scale 0 to 100 (0 no effect, 100 complete control)
[17] = Preemergence, 125 g ai/ha, scale 0 to 100 (0 no effect, 100 complete control)
[18] = Preemergence, 250 g ai/ha, scale 0 to 100 (0 no effect, 100 complete control)
[19] = postemergence, 62 g ai/ha, scale 0 to 100, 0 no effect, 100 complete control
[20] = Postemergence, scale 0 to 100 (0 no effect, 100 complete control)
[21] = Preemergence, 62 g ai/ha, scale 0 to 100 (0 no effect, 100 complete control)

C#CCOC(=O)Oc1c(C)nn(C)c(=O)c1-c1c(C)sc2ccc(C)cc12 [Compound 87]
45: Plant response rating, Oilseed Rape [5, 18] | Bromegrass, Downy plant response rating [6, 20]
5: Plant response rating, Barley, Winter [8, 15] | Plant response rating, Barley, Winter [8, 16]
0: Plant response rating (scale of 0 to 100), Buckwheat, Wild ([7]; Preemergence) | Plant response rating, Buckwheat, Wild [7, 21] | Plant response rating, Buckwheat, Wild [7, 17] | Barley, Winter plant response rating [8, 14] | Plant response rating (scale of 0 to 100), Barley, Winter ([8]; Preemergence, 31 g ai/ha) | Plant response rating, Barley, Winter [8, 21] | Plant response rating, Barley, Winter [8, 19]
85: Plant response rating, Canarygrass [2, 15] | Plant response rating (scale of 0 to 100), Canarygrass ([2]; Preemergence, 31 g ai/ha) | Chickweed plant response rating [3, 14] | Plant response rating (scale of 0 to 100), Speedwell ([4]; Preemergence, 62 g ai/ha) | Buckwheat, Wild plant response rating [7, 20] | Plant response rating, Field Poppy [10, 15] | Plant response rating, Field Poppy [10, 19] | Galium plant response rating [11, 14] | Plant response rating, Blackgrass [12, 15]
10: Plant response rating, Barley, Winter [8, 17]
65: Plant response rating, Oilseed Rape [5, 15] | Plant response rating, Bromegrass, Downy [6, 15] | Plant response rating, Bromegrass, Downy [6, 16] | Plant response rating, Bromegrass, Downy [6, 21] | Plant response rating, Bromegrass, Downy [6, 19] | Blackgrass plant response rating [12, 14]
100: Plant response rating, Chamomile [1, 15] | Plant response rating, Chamomile [1, 16] | Plant response rating, Chamomile [1, 17] | Plant response rating, Chamomile [1, 18] | Plant response rating, Chamomile [1, 19] | Plant response rating, Chickweed [3, 15] | Plant response rating, Chickweed [3, 16] | Plant response rating (scale of 0 to 100), Chickweed ([3]; Preemergence, 31 g ai/ha) | Plant response rating (scale of 0 to 100), Chickweed ([3]; Preemergence, 62 g ai/ha) | Plant response rating, Chickweed [3, 17] | Plant response rating, Chickweed [3, 18] | Plant response rating, Speedwell [4, 18] | Plant response rating, Buckwheat, Wild [7, 15] | Plant response rating, Buckwheat, Wild [7, 16] | Plant response rating, Buckwheat, Wild [7, 19] | Plant response rating, Lambsquarters [9, 15] | Plant response rating, Lambsquarters [9, 16] | Plant response rating (scale of 0 to 100), Lambsquarters ([9]; Preemergence, 62 g ai/ha) | Plant response rating, Lambsquarters [9, 17] | Plant response rating, Lambsquarters [9, 18] | Plant response rating, Lambsquarters [9, 19] | Plant response rating, Field Poppy [10, 16] | Plant response rating (scale of 0 to 100), Field Poppy ([10]; Preemergence, 31 g ai/ha) | Plant response rating (scale of 0 to 100), Field Poppy ([10]; Preemergence, 62 g ai/ha) | Plant response rating, Field Poppy [10, 17] | Plant response rating, Field Poppy [10, 18] | Plant response rating, Galium [11, 15] | Plant response rating, Galium [11, 16] | Plant response rating, Galium [11, 19]
15: Oilseed Rape plant response rating [5, 14] | Plant response rating (scale of 0 to 100), Oilseed Rape ([5]; Preemergence, 31 g ai/ha) | Plant response rating (scale of 0 to 100), Galium ([11]; Preemergence, 31 g ai/ha)
95: Plant response rating (scale of 0 to 100), Chamomile ([1]; Preemergence, 31 g ai/ha) | Plant response rating (scale of 0 to 100), Chamomile ([1]; Preemergence, 62 g ai/ha) | Plant response rating, Canarygrass [2, 18] | Lambsquarters plant response rating [9, 14] | Plant response rating, Ryegrass, Italian [13, 15] | Plant response rating (scale of 0 to 100), Ryegrass, Italian ([13]; Preemergence, 62 g ai/ha) | Plant response rating, Ryegrass, Italian [13, 19]
55: Canarygrass plant response rating [2, 14]
70: Speedwell plant response rating [4, 14] | Plant response rating (scale of 0 to 100), Lambsquarters ([9]; Preemergence, 31 g ai/ha) | Field Poppy plant response rating [10, 14] | Plant response rating (scale of 0 to 100), Blackgrass ([12]; Preemergence, 31 g ai/ha)
40: Plant response rating, Oilseed Rape [5, 19] | Plant response rating (scale of 0 to 100), Galium ([11]; Preemergence, 62 g ai/ha)
90: Chamomile plant response rating [1, 14] | Plant response rating, Canarygrass [2, 16] | Plant response rating (scale of 0 to 100), Canarygrass ([2]; Preemergence, 62 g ai/ha) | Plant response rating, Canarygrass [2, 17] | Plant response rating, Chickweed [3, 19] | Plant response rating, Speedwell [4, 17] | Plant response rating, Blackgrass [12, 16] | Ryegrass, Italian plant response rating [13, 14] | Plant response rating (scale of 0 to 100), Ryegrass, Italian ([13]; Preemergence, 31 g ai/ha)
80: Plant response rating, Canarygrass [2, 19] | Plant response rating, Speedwell [4, 16] | Plant response rating (scale of 0 to 100), Speedwell ([4]; Preemergence, 31 g ai/ha) | Plant response rating, Bromegrass, Downy [6, 18] | Plant response rating, Galium [11, 18] | Plant response rating, Blackgrass [12, 17] | Plant response rating, Blackgrass [12, 18]
75: Plant response rating, Speedwell [4, 15] | Plant response rating, Speedwell [4, 19] | Plant response rating, Oilseed Rape [5, 16] | Plant response rating, Bromegrass, Downy [6, 17] | Plant response rating, Blackgrass [12, 21] | Plant response rating, Blackgrass [12, 19]
25: Plant response rating (scale of 0 to 100), Bromegrass, Downy ([6]; Preemergence) | Plant response rating, Barley, Winter [8, 18]
98: Plant response rating, Ryegrass, Italian [13, 16] | Plant response rating, Ryegrass, Italian [13, 17] | Plant response rating, Ryegrass, Italian [13, 18]
30: Plant response rating (scale of 0 to 100), Oilseed Rape ([5]; Preemergence, 62 g ai/ha) | Plant response rating, Oilseed Rape [5, 17]
60: Plant response rating, Buckwheat, Wild [7, 18] | Plant response rating, Galium [11, 17]

CC(=O)Oc1c(C)nn(C)c(=O)c1-c1c(C)sc2c(C)cc(C)cc12 [Compound 27]
85: Plant response rating, Canarygrass [2, 15] | Plant response rating (scale of 0 to 100), Canarygrass ([2]; Preemergence, 31 g ai/ha) | Plant response rating, Oilseed Rape [5, 16] | Plant response rating, Bromegrass, Downy [6, 17] | Plant response rating, Bromegrass, Downy [6, 18] | Plant response rating, Lambsquarters [9, 15] | Plant response rating, Lambsquarters [9, 16] | Plant response rating, Lambsquarters [9, 19] | Field Poppy plant response rating [10, 14] | Plant response rating, Galium [11, 17] | Plant response rating (scale of 0 to 100), Blackgrass ([12]; Preemergence, 31 g ai/ha) | Plant response rating, Ryegrass, Italian [13, 15] | Plant response rating, Ryegrass, Italian [13, 16] | Plant response rating, Ryegrass, Italian [13, 19]
90: Plant response rating, Chamomile [1, 19] | Plant response rating, Canarygrass [2, 16] | Plant response rating, Blackgrass [12, 15] | Plant response rating, Blackgrass [12, 16] | Plant response rating, Blackgrass [12, 21] | Plant response rating (scale of 0 to 100), Ryegrass, Italian ([13]; Preemergence, 31 g ai/ha)
15: Bromegrass, Downy plant response rating [6, 20] | Barley, Winter plant response rating [8, 18]
10: Plant response rating, Barley, Winter [8, 17]
75: Canarygrass plant response rating [2, 14] | Plant response rating (scale of 0 to 100), Speedwell ([4]; Preemergence, 31 g ai/ha) | Blackgrass plant response rating [12, 14]
5: Plant response rating, Barley, Winter [8, 15] | Plant response rating, Barley, Winter [8, 16]
0: Plant response rating (scale of 0 to 100), Oilseed Rape ([5]; Preemergence, 31 g ai/ha) | Plant response rating, Oilseed Rape [5, 21] | Plant response rating, Oilseed Rape [5, 17] | Plant response rating, Barley, Winter [8, 14] | Plant response rating (scale of 0 to 100), Barley, Winter ([8]; Preemergence, 31 g ai/ha) | Plant response rating, Barley, Winter [8, 21] | Plant response rating, Barley, Winter [8, 19]
60: Plant response rating (scale of 0 to 100), Galium ([11]; Preemergence, 31 g ai/ha)
25: Plant response rating, Bromegrass, Downy [6, 19] | Plant response rating (scale of 0 to 100), Buckwheat, Wild ([7]; Preemergence)
30: Plant response rating, Buckwheat, Wild [7, 21]
80: Chamomile plant response rating [1, 14] | Plant response rating, Canarygrass [2, 19] | Plant response rating, Buckwheat, Wild [7, 18] | Lambsquarters plant response rating [9, 14] | Plant response rating, Blackgrass [12, 19] | Ryegrass, Italian plant response rating [13, 14]
100: Plant response rating, Chamomile [1, 16] | Plant response rating (scale of 0 to 100), Chamomile ([1]; Preemergence, 31 g ai/ha) | Plant response rating, Chamomile [1, 21] | Plant response rating, Chamomile [1, 17] | Plant response rating, Chamomile [1, 18] | Plant response rating, Canarygrass [2, 17] | Plant response rating, Canarygrass [2, 18] | Plant response rating, Chickweed [3, 15] | Plant response rating, Chickweed [3, 16] | Plant response rating (scale of 0 to 100), Chickweed ([3]; Preemergence, 31 g ai/ha) | Plant response rating, Chickweed [3, 21] | Plant response rating, Chickweed [3, 17] | Plant response rating, Chickweed [3, 18] | Plant response rating, Chickweed [3, 19] | Plant response rating, Speedwell [4, 15] | Plant response rating, Speedwell [4, 16] | Plant response rating, Speedwell [4, 21] | Plant response rating, Speedwell [4, 17] | Plant response rating, Speedwell [4, 18] | Buckwheat, Wild plant response rating [7, 20] | Plant response rating, Buckwheat, Wild [7, 15] | Plant response rating, Buckwheat, Wild [7, 16] | Plant response rating, Buckwheat, Wild [7, 19] | Plant response rating (scale of 0 to 100), Lambsquarters ([9]; Preemergence, 31 g ai/ha) | Plant response rating, Lambsquarters [9, 21] | Plant response rating, Lambsquarters [9, 17] | Plant response rating, Lambsquarters [9, 18] | Plant response rating, Field Poppy [10, 15] | Plant response rating, Field Poppy [10, 16] | Plant response rating (scale of 0 to 100), Field Poppy ([10]; Preemergence, 31 g ai/ha) | Plant response rating, Field Poppy [10, 21] | Plant response rating, Field Poppy [10, 17] | Plant response rating, Field Poppy [10, 18] | Plant response rating, Field Poppy [10, 19] | Galium plant response rating [11, 14] | Plant response rating, Galium [11, 15] | Plant response rating, Galium [11, 16] | Plant response rating, Galium [11, 18] | Plant response rating, Galium [11, 19] | Blackgrass plant response rating [12, 18] | Plant response rating, Ryegrass, Italian [13, 21] | Plant response rating, Ryegrass, Italian [13, 17] | Plant response rating, Ryegrass, Italian [13, 18]
65: Plant response rating, Oilseed Rape [5, 19]
55: Oilseed Rape plant response rating [5, 14] | Plant response rating, Bromegrass, Downy [6, 15] | Plant response rating, Bromegrass, Downy [6, 21]
95: Plant response rating, Chamomile [1, 15] | Plant response rating, Canarygrass [2, 21] | Chickweed plant response rating [3, 14] | Plant response rating, Blackgrass [12, 17]
45: Plant response rating, Buckwheat, Wild [7, 17]
35: Speedwell plant response rating [4, 14] | Plant response rating, Oilseed Rape [5, 18] | Plant response rating (scale of 0 to 100), Bromegrass, Downy ([6]; Preemergence)
70: Plant response rating, Speedwell [4, 19] | Plant response rating, Oilseed Rape [5, 15] | Plant response rating, Bromegrass, Downy [6, 16] | Plant response rating, Galium [11, 21]
